These results are taken from patent US20230099756A1, “METHODS OF USING ANTI-CD79B IMMUNOCONJUGATES TO TREAT DIFFUSE LARGE B-CELL LYMPHOMA” (Genentech, Inc., priority 2021, published 2023).

Common to all, as to format: in vitro ADME
The target in series [1] is P-glycoprotein (P-gp) (Homo sapiens, UniProt P08183). Briefly: P-glycoprotein substrate and inhibitor status of MMAE. The source says: (§1) Based on a validated physiological-based PK model simulation, strong CYP3A4 inhibitors may increase the exposure (e.g., area under the concentration-time curve) of unconjugated MMAE by […] while acMMAE PK is not affected. Concomitant medications that are strong CYP3A4 inhibitors are considered cautionary as they may potentially lead to adverse reactions, which require close monitoring. […] Concomitant medications that are P-gp inhibitors are considered cautionary as they may potentially lead to adverse reactions, which require close monitoring.
P-glycoprotein (P-gp), sequence (P08183 whole entry): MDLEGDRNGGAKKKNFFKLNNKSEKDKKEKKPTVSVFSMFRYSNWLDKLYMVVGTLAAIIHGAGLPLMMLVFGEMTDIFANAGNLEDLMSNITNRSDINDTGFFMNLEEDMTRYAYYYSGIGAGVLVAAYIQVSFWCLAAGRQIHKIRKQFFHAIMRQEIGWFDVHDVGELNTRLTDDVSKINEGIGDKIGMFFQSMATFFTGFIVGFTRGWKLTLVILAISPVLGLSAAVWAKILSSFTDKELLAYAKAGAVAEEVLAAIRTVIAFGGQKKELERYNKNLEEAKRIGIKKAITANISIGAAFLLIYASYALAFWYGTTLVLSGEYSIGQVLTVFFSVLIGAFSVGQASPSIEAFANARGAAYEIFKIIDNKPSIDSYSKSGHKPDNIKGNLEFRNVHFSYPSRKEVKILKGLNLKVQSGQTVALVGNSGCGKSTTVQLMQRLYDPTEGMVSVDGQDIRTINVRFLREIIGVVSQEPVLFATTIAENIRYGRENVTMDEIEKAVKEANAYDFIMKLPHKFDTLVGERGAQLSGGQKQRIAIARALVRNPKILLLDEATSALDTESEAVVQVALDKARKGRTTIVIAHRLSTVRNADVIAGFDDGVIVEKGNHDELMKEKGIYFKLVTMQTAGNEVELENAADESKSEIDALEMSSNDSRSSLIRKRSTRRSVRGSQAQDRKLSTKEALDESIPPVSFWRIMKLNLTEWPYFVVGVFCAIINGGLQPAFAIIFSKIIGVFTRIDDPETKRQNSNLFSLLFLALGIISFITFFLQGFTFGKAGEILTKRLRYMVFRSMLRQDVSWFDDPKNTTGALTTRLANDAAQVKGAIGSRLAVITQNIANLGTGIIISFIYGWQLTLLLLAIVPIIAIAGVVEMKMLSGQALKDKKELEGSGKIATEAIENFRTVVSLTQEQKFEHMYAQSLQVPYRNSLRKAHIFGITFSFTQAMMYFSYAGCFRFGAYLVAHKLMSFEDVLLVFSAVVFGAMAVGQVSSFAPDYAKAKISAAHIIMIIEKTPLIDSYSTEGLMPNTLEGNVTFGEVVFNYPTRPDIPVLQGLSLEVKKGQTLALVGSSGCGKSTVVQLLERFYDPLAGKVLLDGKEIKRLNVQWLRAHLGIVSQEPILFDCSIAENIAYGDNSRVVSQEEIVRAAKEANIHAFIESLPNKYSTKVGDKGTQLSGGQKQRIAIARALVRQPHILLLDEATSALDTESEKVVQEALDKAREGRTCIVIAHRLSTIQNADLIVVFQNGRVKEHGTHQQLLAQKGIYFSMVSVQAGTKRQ

For series [2], the target named is CYP3A4 (Homo sapiens, UniProt P08684). In words: In vitro metabolism of unconjugated MMAE. As to conditions: in vitro data.
CYP3A4, sequence (P08684 whole entry): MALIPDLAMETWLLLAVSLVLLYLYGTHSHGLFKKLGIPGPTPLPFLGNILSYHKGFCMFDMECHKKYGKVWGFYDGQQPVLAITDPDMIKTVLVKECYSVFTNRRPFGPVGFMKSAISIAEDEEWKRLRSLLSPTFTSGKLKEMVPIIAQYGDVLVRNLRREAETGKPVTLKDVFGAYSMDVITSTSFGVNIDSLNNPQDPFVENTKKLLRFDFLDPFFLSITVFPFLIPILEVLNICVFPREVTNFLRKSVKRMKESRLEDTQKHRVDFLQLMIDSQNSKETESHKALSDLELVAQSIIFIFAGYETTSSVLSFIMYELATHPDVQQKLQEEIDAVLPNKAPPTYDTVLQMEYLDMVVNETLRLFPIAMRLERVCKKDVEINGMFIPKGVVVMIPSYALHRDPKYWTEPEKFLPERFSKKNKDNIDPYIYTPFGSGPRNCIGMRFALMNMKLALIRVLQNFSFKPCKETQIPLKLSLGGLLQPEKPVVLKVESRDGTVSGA
Text: as §1

Series [3] has as its target CYP2D6 (Homo sapiens, UniProt P10635). Briefly: In vitro metabolism of unconjugated MMAE. As to conditions: in vitro data.
Text: as §1

Where a SMILES comes first, the peptide text is derived from it. [ ]: non-standard residue; d: D form. The star is where a group is joined. Dolaproine = CO[C@@H]([C@@H]1CCCN1)[C@@H](C)C(=O)O; Dil = CC[C@H](C)[C@H](NC)[C@@H](CC(=O)O)OC; X1 = C[C@@H](N*)[C@@H](O)c1ccccc1; NMeV = CN[C@H](C(=O)O)C(C)C

CYP2D6, sequence (P10635 whole entry): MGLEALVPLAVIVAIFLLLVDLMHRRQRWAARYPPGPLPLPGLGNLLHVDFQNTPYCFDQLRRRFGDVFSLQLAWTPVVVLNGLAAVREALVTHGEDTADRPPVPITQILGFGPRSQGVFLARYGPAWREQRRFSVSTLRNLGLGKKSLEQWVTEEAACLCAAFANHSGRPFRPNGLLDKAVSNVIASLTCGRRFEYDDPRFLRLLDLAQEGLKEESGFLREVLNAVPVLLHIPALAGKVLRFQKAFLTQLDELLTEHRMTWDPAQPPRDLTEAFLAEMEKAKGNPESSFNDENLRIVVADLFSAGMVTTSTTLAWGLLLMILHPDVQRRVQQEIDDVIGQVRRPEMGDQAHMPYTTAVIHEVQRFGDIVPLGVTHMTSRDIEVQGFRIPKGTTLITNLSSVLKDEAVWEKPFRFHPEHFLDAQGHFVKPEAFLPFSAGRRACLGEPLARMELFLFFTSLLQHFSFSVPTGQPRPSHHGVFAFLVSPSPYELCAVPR

As to `CC[C@H](C)[C@@H]([C@@H](CC(=O)N1CCC[C@H]1[C@H](OC)[C@@H](C)C(=O)N[C@H](C)[C@@H](O)c1ccccc1)OC)N(C)C(=O)[C@@H](NC(=O)[C@@H](NC)C(C)C)C(C)C` [MMAE] (H-[NMeV]V[Dil][Dolaproine]-X1), in series [1], the P-gp inhibitor status entry is “not a P-gp inhibitor” and the P-gp substrate status entry is recorded as “P-glycoprotein (P-gp) substrate”. In addition, the “metabolism by CYP3A4” value in series [2] is “mainly metabolized by CYP3A4”. In addition, the “metabolism by CYP2D6” value in series [3] is on record as “to a lesser extent, by CYP2D6”.
